Assay results: patent publication US20080118980A1, “Estrogen Enhancing Differentiation of Human Mesenchymal Stromal Cells and Adipose-derived Stromal Cells” (The Board of Trustees of the University of Illinois,, priority 2006, published 2008)

What was measured:
rat bone MSCs = assay: Proliferation of rat bone MSCs with E2 modulation (MTS, Example 4); assay type: cell-based; details: for cell proliferation (absorbance at 540 nm) vs control: 10^−9 and 10^−6 M E2, day 3, FIG. 9A; for E2 concentration of proliferation peak: day 3
Protocol: Three month-old, male and female Fisher 344 rats (Charles River Lab., Wilmington, Mass.) were purchased and euthanized by CO^2 inhalation. The tibias and femurs were dissected and bone marrow plugs were flushed out with a syringe (18-gauge needle), and filled with a basic medium consisting of DMEM, 10%FBS and 1% antibiotic-antimycotic. Cells were counted on a hemacytometer, plated at 5×10^7 cells/100-mm petri dish and incubated with basic DMEM medium at 37° C. in 5% CO2. The MSCs were isolated by removing unattached cells via medium exchange. The MSCs were incubated up to 80% confluence and then subcultured at a density of 10^6/100-mm dish. Prior to confluence, the MSCs were trypsinized, counted and used for measuring proliferation rate using E2 modulation.
In order to analyze the estrogen function on cell proliferation, 500 of passage-1 MSCs were placed into each well of 96-well plates and exposed to basic medium supplemented with different concentrations of E2 (10^−6M to 10^−9M) (Sigma, St. Louis, Mo.). On day 3, the cell proliferation with different estrogen modulations were quantified using a MTS calorimetric method according to manufacturer's manual (CellTiter 96® Queous One Solution Cell Proliferation Assay, Promega, Madison, Wis.)

human ASCs = assay: Adipogenic differentiation of ASCs modulated by E2 (Example 2); assay type: cell-based; details: for increase of elution of Oil-O-Red staining: vs differentiation without estrogen, FIG. 7C
Protocol: Because estrogen receptors (ERs) exist in adipose tissues (Dieudonne et al. (2004) Am J Physiol Cell Physiol. 286:C655-661), it is hypothesized that estrogen can also modulate the differentiation potentials of ASCs. All the experiments using human ASCs were performed under an approved IRB protocol of the University of Illinois at Chicago. Human abdomen subcutaneous adipose tissue was obtained from a healthy person with lipo-aspirated surgery. ASCs were isolated from adipose tissue according to previous studies (Hong et al. (2006) Cells Tissues Organs. 183 (3):133-40). Briefly, adipose tissue was finely minced and then digested with 0.075 wt % collagenase type I (Sigma, St Louis, Mo.) at 37° C. for 45 min with intermittent shaking. The cells were collected by filtration with a cell strainer with pore size of 100 μm diameter (Fisher Scientific, Barrington, Ill.). The harvested cells were cultured in a Dulbecco's Modified Eagle's Medium (DMEM), 15% fetal bovine serum (FBS) and 1% antibiotic-antimycotic at 10^6 cells/100 mm dish. Upon reaching 80-90% confluence, the isolated cells were trypsinized, counted, and subcultured at a density of 10^5 cells/100 mm dish as passage-1. The cells used for study are passage-3.
The basic DMEM medium supplemented with 50 nM of dexamethasone, […] and 5 mM of isobutyl-methylxanthine (IBMX) was used to differentiate ASCs into adipocytes (Hong et al. (2005) Ann Biomed Eng. 33:511-517). At 70% confluence of ASCs in 12-well plates, the basic DMEM medium was exchanged for the adipogenic differentiation medium. The effects of estrogen on adipogenic differentiation were observed after E2 supplements at concentrations ranging from 10^−8 to 10^−11M. On day 4, the cells were collected for analysis of adipogenic and ER gene expressions. On day 7, adipogenic differentiation of ASCs modulated by estrogen was analyzed by Oil-O-Red staining and quantitative measurements. Each treatment group included four samples.
On the defined day, cells cultured in 12-well plates were washed twice with phosphate buffered solution (PBS), suspended and lysed in 1% Triton-X100 solution (Sigma, St. Louis, Mo.). The collected cells were subsequently homogenized using sonication (Dismembrator Model 100, Fisher Scientific, Barrington, Ill.). The DNA content in the cells was determined by a fluorometric assay using a spectrofluorometer and DNA quantification kit (Hoechst 33258, Bio-Rad, Hercules, Calif.). The total protein concentrations of lysates were measured by a simple colorimetric assay based on the Bradford dye-binding procedure (Bio-Rad, Hercules, Calif.). The amount of protein was normalized by the unit of DNA.
After 7 days of incubation with adipogenic differentiation medium supplemented with different concentrations of E2, cultured cells were fixed in 10% neutral buffered formalin for 15 min and washed with PBS twice. Cells were immersed in a 60% Oil-O-Red solution in PBS (Sigma, St Louis, Mo.) for 60 min. In order to quantify adipogenic potentials, the images of Oil-O-Red stained at each well were randomly taken by a digital camera connected to a computer monitor. The Oil-O-Red positive cells on the screen were double-blindly counted. Five pictures were taken from each well. The cell numbers were normalized to per mm^2. Oil-O-Red dye then was eluted by 500 μl of 100% isopropanol for each well of cultured cells. The spectrophotometric absorbance of the resulting solution was quantified at 510 nm.
Total RNA was extracted from the various differentiated cells using TRizol reagent (Invitrogen, Carlsbad, Calif.). Approximately 5 μg of total RNA was converted to single stranded cDNA using a commercial cDNA synthesis kit (Invitrogen, Carlsbad, Calif.). […]

C[C@]12CC[C@@H]3c4ccc(O)cc4CC[C@H]3[C@@H]1CC[C@@H]2O [E2, 17-β estradiol]
cell proliferation (absorbance at 540 nm) vs control (rat bone MSCs; female MSCs): significantly higher | E2 concentration of proliferation peak (rat bone MSCs; female bone MSCs): 10^−6 M | cell proliferation (absorbance at 540 nm) vs control (rat bone MSCs; male MSCs): significantly higher | E2 concentration of proliferation peak (rat bone MSCs; male bone MSCs): 10^−9 M | ERβ expression (RT-PCR) (human ASCs; 4 days, FIG. 6): undetected | ERα expression (RT-PCR) (human ASCs; 4 days, no ERα band without E2 supplement, FIG. 6): expressed | DNA amount (human ASCs; 7 days adipogenic media with E2 supplements, FIG. 7A): decreased | number of Oil-O-Red positively stained cells (human ASCs; 7 days, FIG. 7B): increased | population of lipid-containing cells (human ASCs; ASCs after E2 supplement, Oil-O-Red staining): increased population | increase of elution of Oil-O-Red staining (human ASCs; estrogen 10^−8 M, 7 days): 33.9% | increase of elution of Oil-O-Red staining (human ASCs; estrogen 10^−9 M, 7 days): 25.5% | effects on adipogenesis at low concentrations (human ASCs; estrogen supplement at low concentrations): hardly observed
